Where two headings read alike, the source gives them in different places.

In assay [1] the target is HyNaC2/10/7 (Hydra vulgaris (Hydra magnipapillata), UniProt A0A0A0MP61+A0A0A0MP73+A8DZR6). The experiment in a line: Activation of HyNaC2/10/7 expressed in Xenopus oocytes by Hydra-RFamides (TEVC). The conditions noted are these: EGTA-injected oocytes. It is filed as cell-based. How it is done:
(§1) To study the biophysical properties of the new HyNaCs, cRNA of HyNaCs was synthesized in vitro (mMessage mMachine kit, Ambion, Austin, Texas, USA) and injected into Xenopus laevis oocytes of stage V and VI. After injection, oocytes were incubated for one to two days at 19°C in oocyte Ringer’s solution 2 (OR-2), which contained (in mM): 82.5 NaCl, 2.5 KCl, 1.0 Na2HPO4, 1.0 MgCl2, 1.0 CaCl2, 5.0 HEPES, 0.5 g/l PVP, 1,000 U/l penicillin and 10 mg/l streptomycin, NaOH was used to adjust pH to 7.3. Whole cell currents were recorded from defolliculated oocytes by two-electrode voltage-clamp (TEVC) using the amplifier TurboTec 03X (npi electronic GmbH, Tamm, Germany). Standard bath solution (in mM: 140 NaCl, 10 HEPES, 1.8 CaCl2 and 1.0 MgCl2. NaOH was used to adjust pH to 7.4.) was exchanged by a pump driven system combined with the oocyte testing carousel (OTC), which was controlled by the interface OTC-20 [53]. To control the OTC-20 and to record the data to the hard drive, the software CellWorks (version 5.1.1; npi electronic GmbH, Tamm, Germany) was used. Data were sampled at 0.1 to 1 kHz and filtered at 20 Hz. HyNaCs are permeable for Ca^2+, activating an endogenous CaCC [40]. Therefore, unless otherwise indicated, oocytes were injected with 50 nl of 20 mM EGTA 30 to 180 minutes before measurements. Reversal potentials and Ca^2+ permeabilities of HyNaCs were studied as described previously.
(§2) EC50 values for Hydra-RFamides I and II as well as IC50 values for diminazene were determined by fits to the Hill equation using IGOR Pro (version 6.06, WaveMetrics, Inc.). Reversal potentials were defined as the first recorded data point, where currents reversed signs from negative to positive. For I/V relationships, voltage ramps in the absence of the agonist were used to subtract background conductances. Results are reported as mean ± standard error.

Assay [2] has as its target HyNaC2/9/7 (Hydra vulgaris (Hydra magnipapillata), UniProt A0A0A0MP48+A0A0A0MP73+A8DZR6). The experiment in a line: Activation of HyNaC2/9/7 expressed in Xenopus oocytes by Hydra-RFamides (TEVC). It is filed as cell-based. The conditions noted are these: EGTA-injected oocytes. How it is done:
as §1, §2

The target in assay [3] is HyNaC2/3/7 (Hydra vulgaris (Hydra magnipapillata), UniProt A0A0A0MP73+A8DZR6+A8DZR7). The experiment in a line: Activation of HyNaC2/3/7 expressed in Xenopus oocytes by Hydra-RFamides (TEVC). The conditions noted are these: EGTA-injected oocytes. It is filed as cell-based. How it is done: as §1, §2
The target of assay [4] is T1, HyNaC2/3/5 (Hydra vulgaris (Hydra magnipapillata), UniProt A8DZR6+A8DZR7+D3UD58). The experiment in a line: Activation of HyNaC2/3/5 expressed in Xenopus oocytes by Hydra-RFamides (TEVC). Particulars: EGTA-injected oocytes. In kind it is cell-based. How it is done:
as §1, §2

Assay [5] has as its target HyNaC2/3/6 (Hydra vulgaris (Hydra magnipapillata), UniProt A0A0A0MP54+A8DZR6+A8DZR7). Description: Activation of HyNaC2/3/6 expressed in Xenopus oocytes by Hydra-RFamides (TEVC). In kind it is cell-based. Particulars: EGTA-injected oocytes. How it is done: as §1, §2
Assay [6] has as its target HyNaC2/11/5 (Hydra vulgaris (Hydra magnipapillata), UniProt A0A0A0MP55+A8DZR6+D3UD58). Description: Activation of HyNaC2/11/5 expressed in Xenopus oocytes by Hydra-RFamides (TEVC). In kind it is cell-based. How it is done:
as §1, §2

For assay [7], the system named is HyNaC2/9/5. The experiment in a line: Activation of HyNaC2/9/5 in Xenopus oocytes by Hydra-RFamides. It is filed as cell-based, Hydra magnipapillata. Particulars: channel opened by lowering extracellular Ca2+. How it is done: The contribution of the distantly related HyNaC12 to peptide-gated channels was assessed by co-expression with HyNaC2 and one or several other HyNaCs (HyNaC3 to HyNaC11). In addition, HyNaC12 was co-expressed with pools of different HyNaCs without HyNaC2. […] In fact, all HyNaCs that were activated by Hydra-RFamide I were opened by lowering the extracellular Ca^2+ concentration ([Ca^2+]e) to 10 nM (Figure 4). […] Some DEG/ENaCs are constitutively opened by an amino acid substitution at the so-called DEG-position. To further investigate whether HyNaC12 forms a functional homomeric channel, we substituted a glycine at the DEG-position by threonine (G436T), which has a large side chain. This substitution did, however, not constitutively open HyNaC12 (data not shown). This applies also for the co-expression of HyNaC12-G436T together with pools of different wild-type HyNaC subunits, leaving the function of HyNaC12 unknown.
To study the biophysical properties of the new HyNaCs, cRNA of HyNaCs was synthesized in vitro (mMessage mMachine kit, Ambion, Austin, Texas, USA) and injected into Xenopus laevis oocytes of stage V and VI. […] Whole cell currents were recorded from defolliculated oocytes by two-electrode voltage-clamp (TEVC) using the amplifier TurboTec 03X (npi electronic GmbH, Tamm, Germany). […]

The target in assay [8] is HyNaC2/4/6 (Hydra vulgaris (Hydra magnipapillata), UniProt A0A0A0MP54+A8DZR6+A8DZR8). The experiment in a line: Activation of HyNaC2/4/6 expressed in Xenopus oocytes by Hydra-RFamides (TEVC). In kind it is cell-based. Particulars: EGTA-injected oocytes. How it is done: as §1, §2
Assay [9] has as its target T1, HyNaC2/3/5. Also on record: method as in PMID 20159980. Particulars: ref [4], cited from earlier work.
Assay [10] relates to functional HyNaC heterotrimer. Description: Screen of functional HyNaC heterotrimers in Xenopus oocytes for activation by Hydra-RFamides. Particulars: data not shown. In kind it is cell-based, Hydra magnipapillata. How it is done: We tested the function of the new HyNaCs by co-expression of different HyNaC subunit combinations in Xenopus oocytes. We screened for functional subunit combinations by application of 5 μM Hydra-RFamide I, a potent agonist of HyNaC2/3/5 [4]. When we expressed an individual HyNaC subunit we could never elicit currents. […] When HyNaC2 was part of the injected cRNA pool, however, Hydra-RFamide I elicited currents. Simultaneous expression of HyNaC2 with a single other HyNaC resulted only in a functional channel when we co-expressed HyNaC2 and HyNaC3; it was already known that HyNaC2 and HyNaC3 form a low-affinity peptide-gated channel.
Dashed line represents the zero current level. Amino acid sequences of Hydra-RFamides I to V are shown at the bottom. HyNaC, Hydra Na^+ channel.
Since Hydra-RFamide II had been shown previously to activate HyNaC2/3/5 [4], we tested Hydra-RFamides II to V for channel activation.
as §1

Assay [11] has as its target HyNaC2/3/7 (Hydra magnipapillata).
Assay [12] addresses HyNaC2/4/6 (Hydra magnipapillata).
Assay [13] concerns the target HyNaC2/3/6 (Hydra magnipapillata).
Assay [14] deals with HyNaC2/10/7 (Hydra magnipapillata).
The target in assay [15] is HyNaC2/9/7 (Hydra magnipapillata).
Assay [16] addresses HyNaC2/3/5 (Hydra magnipapillata).
The target in assay [17] is HyNaC2/11/5 (Hydra magnipapillata).

HyNaC2/11/5, sequence (A0A0A0MP55 entry or part of it): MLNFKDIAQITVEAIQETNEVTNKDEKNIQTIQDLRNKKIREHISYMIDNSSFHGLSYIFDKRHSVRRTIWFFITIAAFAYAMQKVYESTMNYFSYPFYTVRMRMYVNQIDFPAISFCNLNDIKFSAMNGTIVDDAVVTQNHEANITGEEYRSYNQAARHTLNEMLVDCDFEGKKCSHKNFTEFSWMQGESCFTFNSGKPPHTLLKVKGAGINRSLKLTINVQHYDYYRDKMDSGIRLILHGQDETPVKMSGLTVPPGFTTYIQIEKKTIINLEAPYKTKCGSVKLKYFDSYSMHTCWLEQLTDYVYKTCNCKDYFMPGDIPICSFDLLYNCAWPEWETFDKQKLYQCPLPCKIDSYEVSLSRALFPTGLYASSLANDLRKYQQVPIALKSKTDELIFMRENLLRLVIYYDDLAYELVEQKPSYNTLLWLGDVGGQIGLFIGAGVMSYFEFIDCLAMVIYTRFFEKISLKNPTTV
HyNaC2/11/5, sequence (A8DZR6 entry or part of it): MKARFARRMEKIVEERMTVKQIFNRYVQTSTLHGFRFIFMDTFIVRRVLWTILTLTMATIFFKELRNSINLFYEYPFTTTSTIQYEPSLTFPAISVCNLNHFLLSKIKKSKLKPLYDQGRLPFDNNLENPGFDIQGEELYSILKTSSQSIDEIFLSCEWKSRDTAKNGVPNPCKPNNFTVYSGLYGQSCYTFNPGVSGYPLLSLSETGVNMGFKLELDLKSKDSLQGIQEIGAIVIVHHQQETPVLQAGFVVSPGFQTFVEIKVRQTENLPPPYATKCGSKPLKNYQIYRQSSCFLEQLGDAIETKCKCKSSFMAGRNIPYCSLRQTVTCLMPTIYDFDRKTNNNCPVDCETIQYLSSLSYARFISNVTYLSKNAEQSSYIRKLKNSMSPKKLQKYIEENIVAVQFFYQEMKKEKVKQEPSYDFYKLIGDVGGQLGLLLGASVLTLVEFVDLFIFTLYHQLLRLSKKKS
HyNaC2/11/5, sequence (D3UD58 entry or part of it): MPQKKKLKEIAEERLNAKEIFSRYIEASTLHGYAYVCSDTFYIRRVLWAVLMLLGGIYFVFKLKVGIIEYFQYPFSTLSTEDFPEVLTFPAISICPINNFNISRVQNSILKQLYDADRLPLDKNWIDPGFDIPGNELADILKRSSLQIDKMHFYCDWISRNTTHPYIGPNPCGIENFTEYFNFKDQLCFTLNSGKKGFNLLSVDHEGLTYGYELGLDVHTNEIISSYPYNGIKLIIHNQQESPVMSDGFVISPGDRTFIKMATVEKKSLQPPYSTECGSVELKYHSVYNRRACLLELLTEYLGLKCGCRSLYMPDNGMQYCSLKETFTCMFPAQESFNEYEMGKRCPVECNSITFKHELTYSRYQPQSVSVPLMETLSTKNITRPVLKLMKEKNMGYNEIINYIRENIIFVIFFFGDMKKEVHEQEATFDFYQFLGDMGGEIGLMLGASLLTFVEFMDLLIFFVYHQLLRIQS
T1 sequence (A8DZR6 entry or part of it): as the sequence (A8DZR6 entry or part of it) above
T1 sequence (D3UD58 entry or part of it): as the sequence (D3UD58 entry or part of it) above
T1 sequence (A8DZR7 entry or part of it): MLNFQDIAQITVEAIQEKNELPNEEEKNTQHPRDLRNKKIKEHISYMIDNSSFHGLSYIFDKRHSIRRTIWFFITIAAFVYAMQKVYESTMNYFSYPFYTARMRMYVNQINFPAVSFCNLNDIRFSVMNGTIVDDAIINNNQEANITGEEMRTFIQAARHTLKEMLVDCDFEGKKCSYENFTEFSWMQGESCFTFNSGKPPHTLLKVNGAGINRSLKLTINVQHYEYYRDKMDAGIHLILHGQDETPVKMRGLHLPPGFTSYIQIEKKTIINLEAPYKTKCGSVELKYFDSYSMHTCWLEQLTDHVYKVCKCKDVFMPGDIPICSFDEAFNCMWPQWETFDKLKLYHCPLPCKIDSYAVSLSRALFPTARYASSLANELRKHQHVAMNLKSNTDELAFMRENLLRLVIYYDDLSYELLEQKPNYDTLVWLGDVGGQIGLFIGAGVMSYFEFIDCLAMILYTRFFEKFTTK
HyNaC2/9/7, sequence (A0A0A0MP48 entry or part of it): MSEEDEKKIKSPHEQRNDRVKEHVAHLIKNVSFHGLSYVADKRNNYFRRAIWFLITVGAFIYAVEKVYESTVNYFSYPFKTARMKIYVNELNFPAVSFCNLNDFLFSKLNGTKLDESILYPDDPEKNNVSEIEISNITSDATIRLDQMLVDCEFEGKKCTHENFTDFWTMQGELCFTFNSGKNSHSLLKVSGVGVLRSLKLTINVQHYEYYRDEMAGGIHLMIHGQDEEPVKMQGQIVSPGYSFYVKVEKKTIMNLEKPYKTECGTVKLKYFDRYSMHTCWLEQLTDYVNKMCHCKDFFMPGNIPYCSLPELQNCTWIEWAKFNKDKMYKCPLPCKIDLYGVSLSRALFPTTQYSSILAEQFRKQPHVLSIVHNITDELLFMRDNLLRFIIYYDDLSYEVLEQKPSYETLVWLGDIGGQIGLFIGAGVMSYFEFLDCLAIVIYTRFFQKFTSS
HyNaC2/9/7, sequence (A8DZR6 entry or part of it): as the sequence (A8DZR6 entry or part of it) above
HyNaC2/9/7, sequence (A0A0A0MP73 entry or part of it): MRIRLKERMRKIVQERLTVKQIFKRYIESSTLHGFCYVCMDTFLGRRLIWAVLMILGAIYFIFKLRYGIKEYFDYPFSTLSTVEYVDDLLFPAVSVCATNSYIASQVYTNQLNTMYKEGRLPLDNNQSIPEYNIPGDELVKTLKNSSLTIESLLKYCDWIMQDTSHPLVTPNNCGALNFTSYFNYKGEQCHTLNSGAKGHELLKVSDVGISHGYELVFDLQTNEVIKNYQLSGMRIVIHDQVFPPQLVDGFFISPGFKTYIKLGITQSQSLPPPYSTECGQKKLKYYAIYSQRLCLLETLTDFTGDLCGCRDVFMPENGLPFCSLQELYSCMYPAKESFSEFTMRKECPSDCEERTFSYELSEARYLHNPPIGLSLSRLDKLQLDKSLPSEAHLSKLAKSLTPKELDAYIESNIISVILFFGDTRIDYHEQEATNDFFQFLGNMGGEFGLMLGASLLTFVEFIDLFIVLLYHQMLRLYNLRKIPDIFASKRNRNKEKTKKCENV

Regarding Hydra-RFamide II, the “current amplitude at highest agonist concentration (Hydra-RFamide II)” value was 1.1 ± 0.4 μA in [1]; 3.6 ± 1.3 μA in assay [2]; 11.8 ± 4.0 μA in assay [3]; 5.3 ± 1.0 μA in assay [4]; 9.2 ± 1.7 μA in assay [5]; 2.2 ± 0.4 μA in [6] (EGTA-injected oocytes). Moreover, in assay [8], the “current amplitude at highest agonist concentration (Hydra-RFamide II)” value is 4.7 ± 0.8 μA. Besides, the EC50 – broadly, the concentration needed to bring the measured effect to its halfway point – in assay [2] (read-out: EC50 for Hydra-RFamide II) is 40 ± 10 nM; in [4] (read-out: EC50 (apparent affinity) for Hydra-RFamide II) it was 1610 ± 270 nM; in assay [6] (EGTA-injected oocytes, read-out: EC50 for Hydra-RFamide II) it was 950 ± 160 nM; in assay [9] (oocytes not injected with EGTA, read-out: EC50 (apparent affinity) for Hydra-RFamide II), 340 ± 80 nM. Also, the “apparent affinity for Hydra-RFamide II relative to Hydra-RFamide I” value in [6] (0.95 μM compared with 13.8 μM) was “about 15 fold”; in [9], “ten times higher”. Moreover, the “activation of HyNaC2/9/5” value in assay [7] is given as “not activated”. The “activation of channels that were activated by Hydra-RFamide I” value in [10] was “also activated”.

Take Hydra-RFamide II (peptide): the current at the highest concentration of Hydra-RFamide II of the concentration-response series (two-electrode voltage clamp, EGTA-injected oocytes); concentrations and EC50 not given in assay [11] was 11.8 μA; in assay [12], 4.7 μA; in [13] it was 9.2 μA; in assay [14], 1.1 μA. The EC50 of current activation by Hydra-RFamide II (two-electrode voltage clamp, Xenopus oocytes injected with EGTA) came to 40 nM in [15], 1610 nM in [16] and 950 nM in [17].

Source of the values: PMC4212090, “The comprehensive analysis of DEG/ENaC subunits in Hydra reveals a large variety of peptide-gated channels, potentially involved in neuromuscular transmission” (BMC Biology, 2014).
